# Key:
# [1] = tested on: healthy male participants; test: Subjective effects, ARCI short form, methylone trial; format: in vivo, humans; conditions: 150 or 200 mg oral
# Protocol: (§1) Methylone pharmacology was evaluated in a study designed as a randomized, double-blind, placebo-controlled, crossover clinical trial. Four pilot studies were conducted administering methylone at oral doses of 50 (n = 3), 100 (n = 6), 150 (n = 5), and 200 mg (n = 7). Participants attended 3 experimental sessions separated by a one-week wash-out period and received two doses of methylone (one dose per experimental session) compared to placebo, except in the last pilot study in which participants received one dose of methylone, compared to MDMA and placebo. However, in this manuscript, only the results corresponding to the highest methylone doses (n = 12; 150 and 200 mg; mean dose = 179.2 mg) are presented, to enable comparison with clephedrone self-administration. Participants were recruited by word of mouth in the volunteer database of the clinical pharmacology unit.
# (§2) Methylone hydrochloride of high purity in powder form was acquired from LGC Standards (Teddington, UK) for the controlled study. The Pharmacy Department of the Hospital Universitari Germans Trias i Pujol was responsible for manufacturing, storing, and dispensing identical and opaque soft gelatin capsules containing 50 mg of methylone or a placebo (maltodextrin). Treatment consisted of 5 capsules that combined methylone and/or a placebo to reach the target dose. Details can be found in the previous article.
# (§3) Subjective effects were evaluated with visual analog scales (VAS), the short form of the Addiction Research Center Inventory (ARCI), and the Evaluation of Subjective Effects of Substances with Abuse Potential questionnaire (VESSPA-SSE). In addition, the Sensitivity to Drug Reinforcement Questionnaire (SDRQ) and a pharmacological identification class questionnaire were used in the controlled study administering methylone.
# The validated ARCI 49-item short form was used to evaluate and discriminate the subjective following five subscales that correspond to different classes of drugs of abuse: pentobarbital-chlorpromazine-alcohol group (PCAG) is susceptible to sedative effects, morphine-benzedrine group (MBG) is susceptible to euphoric effects, lysergic acid diethylamide (LSD) is susceptible to dysphoria and somatic symptoms, benzedrine (BG) is susceptible to intellectual efficiency and energy, and amphetamine (A) is susceptible to amphetamine-like effects.
# (§4) Participants included in the naturalistic clephedrone study completed VAS at baseline, 0.50, 1, 1.5, 2, 3, 4, and 5 h, and ARCI and VESSPA at baseline, 1, 2, 3, 4, and 5 h after self-administering clephedrone. In the controlled study, VAS was performed at baseline and 0.25, 0.50, 0.75, 1, 1.5, 2, 3, 4, 6, 8, 10, and 24 h, and ARCI and VESSPA at baseline and 1, 2, 3, 4, 6, 8, and 10 h after administering methylone. Participants completed SDRQ and VAS sexual desire and arousal at baseline, 1 and 10 h, and the pharmacological class identification questionnaire at 8 h.
# (§5) For statistical analysis, values of physiological (SBP, DBP, HR, and T) and subjective effects (VAS, ARCI, and VESSPA-SSE) were baseline–adjusted. Maximum effects (Emax) and the time needed to reach maximum effects (Tmax) were determined, and the area under the curve up to 5 h (AUC0–5h) for clephedrone and up to 6 h (AUC0–6h) for methylone was calculated using the trapezoidal rule. Emax and AUC values are presented as mean ± standard deviation, whereas Tmax is presented in median (range).
# (§6) To find possible significant changes through the time course compared to baseline, a Dunnett multiple comparison test was carried out to compare each time point with baseline in both drug conditions. For clephedrone the comparisons were 0–0.5 h, 0–1 h, 0–1.5 h, 0–2 h, 0–3 h, 0–4 h and 0–5 h, and for methylone this analysis included 0–0.25 h, 0–0.5 h, 0–0.75 h, 0–1 h, 0–1.5 h, 0–2 h, 0–3 h, 0–4 h and 0–6 h. Given their different study designs, no comparative analysis between the time courses of both synthetic cathinones was conducted.
# [2] = tested on: healthy male participants; test: Subjective effects, VESSPA-SSE, methylone trial; format: in vivo, humans; conditions: 150 or 200 mg oral
# Protocol: as §1, §2, §3
# The VESSPA-SSE questionnaire, used to evaluate the subjective effects of stimulant drugs, The questionnaire includes 36-items and consists of six subscales that measure sedation (S), psychosomatic anxiety (ANX), changes in perception (CP), pleasure and sociability (SOC), activity and energy (ACT), and psychotic symptoms (PS).
# as §4, §5, §6
structure (smiles),measurement,setting,value
"CNC(C)C(=O)c1ccc2c(c1)OCO2 (centres unmarked) [Methylone, 3,4-methylenedioxy-N-methylcathinone]",Tmax of effects collected using ARCI,[1],1 h
same,ARCI A (amphetamine-like effects) Emax,[1]; n=12,2.92 ± 1.73 points
same,ARCI BG (intellectual efficiency) Emax,[1]; n=12,1.50 ± 1.09 points
same,ARCI LSD (dysphoria) Emax,[1]; n=12,–0.25 ± 1.29 points
same,ARCI MBG (euphoria) Emax,[1]; n=12,5.92 ± 4.68 points
same,ARCI PCAG (sedation) Emax,[1]; n=12,2.17 ± 3.49 points
same,ARCI A (amphetamine-like effects) AUC0-5/6 h,"[1]; AUC0–6h, n=12",4.33 ± 2.77 points·h
same,ARCI BG (intellectual efficiency) AUC0-5/6 h,"[1]; AUC0–6h, n=12",0.83 ± 1.81 points·h
same,ARCI LSD (dysphoria) AUC0-5/6 h,"[1]; AUC0–6h, n=12",–0.96 ± 1.81 points·h
same,ARCI MBG (euphoria) AUC0-5/6 h,"[1]; AUC0–6h, n=12",8.25 ± 6.89 points·h
same,ARCI PCAG (sedation) AUC0-5/6 h,"[1]; AUC0–6h, n=12",5.46 ± 8.86 points·h
same,Tmax of VESSPA subscales,[2],1 h
same,VESSPA ANX (psychosomatic anxiety) Emax,[2]; n=12,0.92 ± 0.51 points
same,VESSPA CP (changes in perception) Emax,[2]; n=12,0.00 ± 0.00 points
same,VESSPA CP (changes in perception) Tmax,[2]; n=12,0.0 (0.0–0.0) h
same,VESSPA S (sedation) Emax,[2]; n=12,0.56 ± 0.59 points
same,VESSPA SOC (pleasure and sociability) Emax,[2]; n=12,1.24 ± 1.56 points
same,VESSPA-ACT (activity and energy) Emax,[2]; n=12,0.82 ± 0.84 points
same,VESSPA-PS (psychotic symptoms) Emax,[2]; n=12,0.06 ± 0.11 points
same,VESSPA SOC (pleasure and sociability) Emax,"[2]; n=12, listed as methylone",higher than 1 points
same,VESSPA ANX (psychosomatic anxiety) AUC0-5/6 h,"[2]; AUC0–6h, n=12",2.51 ± 2.22 points·h
same,VESSPA CP (changes in perception) AUC0-5/6 h,"[2]; AUC0–6h, n=12",0.00 ± 0.00 points·h
same,VESSPA S (sedation) AUC0-5/6 h,"[2]; AUC0–6h, n=12",1.39 ± 1.96 points·h
same,VESSPA SOC (pleasure and sociability) AUC0-5/6 h,"[2]; AUC0–6h, n=12",1.63 ± 2.13 points·h
same,VESSPA-ACT (activity and energy) AUC0-5/6 h,"[2]; AUC0–6h, n=12",1.02 ± 1.08 points·h
same,VESSPA-PS (psychotic symptoms) AUC0-5/6 h,"[2]; AUC0–6h, n=12",0.10 ± 0.24 points·h

# From PMC12785453, “Oral Fluid Concentrations and Pharmacological Effects of Clephedrone and Methylone in Humans” (International Journal of Molecular Sciences, 2025)
